According to BindingDB's records for doi:10.1021/jm00070a001 (Warner-Lambert, 1993):
pIC50: −log10 of the molar value. Where a SMILES comes first, the peptide text is derived from it. [ ]: non-standard residue; d: D form.

Biological target: Endothelin-1 receptor (Oryctolagus cuniculus)
Experiment: Effective concentration against ET A receptor from rabbit renal artery vascular smooth muscle cells

SMILES	pIC50
CC[C@H](C)[C@H](NC(=O)[C@H](CC(=O)O)NC(=O)[C@H](CC(C)C)NC(=O)[C@@H](Cc1ccccc1)NC(C)=O)C(=O)N[C@H](C(=O)NC(Cc1cnc[nH]1)C(=O)O)[C@@H](C)CC (mixture of isomers) [Ac-D-Phe-Leu-Asp-Ile-Ile-DL-His]	< 5.00
CC[C@H](C)[C@H](NC(=O)[C@H](CC(=O)O)NC(=O)[C@H](CC(C)C)NC(=O)[C@@H](Cc1ccccc1)NC(C)=O)C(=O)N[C@H](C(=O)N[C@@H](Cc1ccc(O)cc1)C(=O)O)[C@@H](C)CC [Ac-D-Phe-Leu-Asp-Ile-Ile-Tyr] (Ac-[dF]LDIIY-OH)	< 5.00
CC[C@H](C)[C@H](NC(=O)[C@H](C)NC(=O)[C@H](CC(=O)O)NC(=O)[C@H](CC(C)C)NC(=O)[C@@H](Cc1ccccc1)NC(C)=O)C(=O)N[C@@H](Cc1c[nH]c2ccccc12)C(=O)O [Ac-D-Phe-Leu-Asp-Ala-Ile-Trp] (Ac-[dF]LDAIW-OH)	5.44
CC[C@H](C)[C@H](NC(=O)[C@H](CC(=O)O)NC(=O)[C@H](CC(C)C)NC(=O)[C@H](N)Cc1ccccc1)C(=O)N[C@H](C(=O)N[C@@H](Cc1c[nH]c2ccccc12)C(=O)O)[C@@H](C)CC [D-Phe-Leu-Asp-Ile-Ile-Trp]	< 5.00

Next, values leading:

pIC50	SMILES
4.85	CC[C@H](C)[C@H](NC(=O)[C@H](CC(=O)O)NC(=O)[C@H](CC(C)C)NC(=O)[C@@H](Cc1ccccc1)NC(C)=O)C(=O)N[C@H](C(=O)N[C@@H](Cc1csc2ccccc12)C(=O)O)[C@@H](C)CC [Ac-D-Phe-Leu-Asp-Ile-Ile-Bta]
< 5.00	CC[C@H](C)[C@H](NC(=O)[C@H](CC(=O)O)NC(=O)[C@H](CC(C)C)NC(=O)[C@@H](Cc1ccccc1)NC(C)=O)C(=O)N[C@@H](Cc1c[nH]c2ccccc12)C(=O)O [(S)-3-[(R)-2-((1S,5S)-2-Acetylamino-3-phenyl-propionylamino)-4-methyl-pentanoylamino]-N-{(S)-1-[(S)-1-carboxy-2-(1H-indol-3-yl)-ethylcarbamoyl]-2-methyl-butyl}-succinamic acid] (Ac-[dF]LDIW-OH)
< 5.00	CC[C@H](C)[C@H](NC(=O)[C@@H](NC(=O)[C@@H](Cc1ccccc1)NC(C)=O)[C@@H](C)CC)C(=O)N[C@@H](Cc1c[nH]c2ccccc12)C(=O)O [Ac-D-Phe-Ile-Ile-Trp] (Ac-[dF]IIW-OH)
5.10	CC[C@H](C)[C@H](NC(=O)[C@H](CC(=O)O)NC(=O)[C@H](CC(C)C)NC(=O)[C@@H](Cc1ccccc1)NC(C)=O)C(=O)N[C@@H](C)C(=O)N[C@@H](Cc1c[nH]c2ccccc12)C(=O)O [Ac-D-Phe-Leu-Asp-Ile-Ala-Trp] (Ac-[dF]LDIAW-OH)
6.40	CC[C@H](C)[C@H](NC(=O)[C@H](CC(=O)O)NC(=O)[C@H](CC(C)C)NC(=O)[C@@H](Cc1ccc(O)cc1)NC(C)=O)C(=O)N[C@H](C(=O)N[C@@H](Cc1c[nH]c2ccccc12)C(=O)O)[C@@H](C)CC (Ac-[dY]LDIIW-OH)
